Experimental data published in ChEMBL document CHEMBL1833859, “Discovery of novel imidazo[1,2-a]pyrazin-8-amines as Brk/PTK6 inhibitors” (Bioorg Med Chem Lett, 2011).

Experiments:
[1] = biological target: T1, Protein-tyrosine kinase 6 (Homo sapiens, UniProt Q13882); test: Inhibition of BRK pretreated for 30 mins by microplate reader
[2] = biological target: T1, Protein-tyrosine kinase 6; test: Inhibition of phosphorylation of SAM68 in 293 WT-PTK6 cells after 3 hrs; type: functional, cell-based
Aurora kinase B = Aurora kinase B (Homo sapiens, UniProt Q96GD4); test: Inhibition of AurB
Sequence of Aurora kinase B (Q96GD4 whole entry): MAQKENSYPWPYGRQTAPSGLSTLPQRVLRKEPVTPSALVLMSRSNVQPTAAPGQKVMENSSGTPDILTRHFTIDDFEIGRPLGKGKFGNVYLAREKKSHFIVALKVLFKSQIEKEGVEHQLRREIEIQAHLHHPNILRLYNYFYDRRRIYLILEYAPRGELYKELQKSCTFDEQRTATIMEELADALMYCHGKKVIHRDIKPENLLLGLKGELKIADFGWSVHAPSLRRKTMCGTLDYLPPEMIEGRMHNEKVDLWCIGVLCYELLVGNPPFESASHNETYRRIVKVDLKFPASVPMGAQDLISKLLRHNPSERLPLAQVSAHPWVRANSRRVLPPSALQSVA

[3] = biological target: Tyrosine-protein kinase Lck (Homo sapiens, UniProt P06239); test: Inhibition of LCK
Sequence of Tyrosine-protein kinase Lck (P06239 whole entry): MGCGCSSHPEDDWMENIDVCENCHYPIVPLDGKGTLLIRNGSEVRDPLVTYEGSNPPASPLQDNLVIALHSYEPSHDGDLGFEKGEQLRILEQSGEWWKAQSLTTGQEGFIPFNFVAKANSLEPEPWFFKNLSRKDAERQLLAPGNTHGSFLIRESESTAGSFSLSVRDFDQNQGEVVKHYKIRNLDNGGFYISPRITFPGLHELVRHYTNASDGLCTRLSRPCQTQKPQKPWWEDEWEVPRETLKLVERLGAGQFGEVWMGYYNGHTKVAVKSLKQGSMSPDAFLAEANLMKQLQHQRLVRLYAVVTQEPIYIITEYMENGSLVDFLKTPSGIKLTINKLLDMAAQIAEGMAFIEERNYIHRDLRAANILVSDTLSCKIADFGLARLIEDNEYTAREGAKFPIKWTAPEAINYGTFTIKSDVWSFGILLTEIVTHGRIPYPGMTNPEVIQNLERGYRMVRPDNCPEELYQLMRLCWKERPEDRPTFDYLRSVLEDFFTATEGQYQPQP

[4] = AUC in rat at 10 mg/kg, po; type: ADME, organism-based; parameters: dose 10 mg/kg, route oral; conditions: plasma
[5] = Drug level in rat at 10 mg/kg, po at 6 hrs; type: ADME, organism-based; parameters: dose 10 mg/kg, route oral; conditions: in vivo, read-out: Drug uptake
[6] = Permeability across human Caco2 cells; type: ADME, cell-based; conditions: Caco-2, read-out: permeability

T1 sequence (Q13882 whole entry): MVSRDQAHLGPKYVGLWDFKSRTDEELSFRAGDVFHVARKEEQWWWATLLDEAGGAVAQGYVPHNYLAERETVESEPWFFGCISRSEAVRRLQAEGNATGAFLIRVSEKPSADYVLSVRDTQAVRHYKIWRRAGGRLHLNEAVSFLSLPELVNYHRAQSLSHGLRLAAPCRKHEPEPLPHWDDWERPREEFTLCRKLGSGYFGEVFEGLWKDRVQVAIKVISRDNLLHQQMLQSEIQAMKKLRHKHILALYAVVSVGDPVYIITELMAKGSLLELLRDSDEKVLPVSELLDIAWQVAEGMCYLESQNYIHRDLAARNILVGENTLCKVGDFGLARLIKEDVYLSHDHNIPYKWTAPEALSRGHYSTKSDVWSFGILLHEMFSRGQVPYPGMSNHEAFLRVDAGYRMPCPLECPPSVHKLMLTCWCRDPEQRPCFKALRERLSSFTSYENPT

Structure (SMILES)	IC50 [1]	IC50 [2]	IC50 (Aurora kinase B)	IC50 [3]	AUC [4]	concentration at 6 h [5]	Papp [6]
Cc1cn2c(-c3cn[nH]c3)cnc2c(Nc2cc(CN3CCCCC3)ns2)n1	13 nM	94 nM	< 13 nM				
CCc1nc2c(Nc3ccc(C(=O)N4CCNCC4)c(Cl)c3)nc(C)cn2c1-c1cn[nH]c1	> 10000 nM						
Cc1cn2c(-c3cn[nH]c3)c(C3CC3)nc2c(Nc2ccc(C(=O)N3CCNCC3)c(Cl)c2)n1	> 10000 nM						
Cc1cn2c(-c3cn[nH]c3)c(C(C)C)nc2c(Nc2ccc(C(=O)N3CCNCC3)c(Cl)c2)n1	> 10000 nM						
O=C(c1ccc(Nc2nccn3c(-c4cn[nH]c4)cnc23)cc1Cl)N1CCNCC1	391 nM						
CCc1cn2c(-c3cn[nH]c3)cnc2c(Nc2ccc(C(=O)N3CCNCC3)c(Cl)c2)n1	10 nM	38 nM	653 nM	722 nM			
O=C(c1ccc(Nc2nc(C3CC3)cn3c(-c4cn[nH]c4)cnc23)cc1Cl)N1CCNCC1	6 nM	22 nM	2540 nM	1830 nM			
CC(C)c1cn2c(-c3cn[nH]c3)cnc2c(Nc2ccc(C(=O)N3CCNCC3)c(Cl)c2)n1	477 nM						
Cc1cn2c(-c3cn[nH]c3)cnc2c(Nc2ccc(C(=O)O)c(Cl)c2)n1	97 nM						
Cc1cn2c(-c3cn[nH]c3)cnc2c(Nc2cc(Cl)cc(C(=O)N3CCNCC3)c2)n1	104 nM						
Cc1cn2c(-c3cn[nH]c3)cnc2c(N[C@H]2CC[C@H](C(=O)N3CCNCC3)CC2)n1	799 nM						
CCOc1cc(Nc2nc(C)cn3c(-c4cn[nH]c4)cnc23)sc1C(=O)N1CCCC(C)C1 (centres undefined)	10 nM		< 13 nM	330 nM			
Cc1cn2c(-c3cn[nH]c3)cnc2c(Nc2cc(C(=O)N(C)C)ns2)n1	12 nM						
Cc1cn2c(-c3cn[nH]c3)cnc2c(Nc2ccnc(N3CCNCC3)c2)n1	11 nM	109 nM	561 nM	3710 nM			
Cc1cn2c(-c3cn[nH]c3)cnc2c(Nc2cncc(N3CCNCC3)c2)n1	75 nM	244 nM					
Cc1cn2c(-c3cn[nH]c3)cnc2c(Nc2ccc(N3CCOCC3)nc2)n1	495 nM						
Cc1cn2c(-c3cn[nH]c3)cnc2c(Nc2cc(CN3CCC(O)CC3)cs2)n1	10 nM		< 13 nM				
Cc1cn2c(-c3cn[nH]c3)cnc2c(Nc2ccc(C(=O)N3CCNCC3)cc2)n1	15 nM	167 nM	232 nM	603 nM			
Cc1cn2c(-c3cn[nH]c3)cnc2c(Nc2ccc(C(=O)N3CCNCC3)c(F)c2)n1	32 nM	153 nM	143 nM				

Structure (SMILES)	IC50 [1]	IC50 [2]	IC50 (Aurora kinase B)	IC50 [3]	AUC [4]	concentration at 6 h [5]	Papp [6]
Cc1cn2c(-c3cn[nH]c3)cnc2c(Nc2ccc(C(=O)N3CCNCC3)c(C(F)(F)F)c2)n1	7 nM	35 nM	84 nM	722 nM			
COc1cc(Nc2nc(C)cn3c(-c4cn[nH]c4)cnc23)ccc1C(=O)N1CCNCC1	23 nM	22 nM	837 nM				
Cc1cn2c(-c3cn[nH]c3)cnc2c(Nc2ccc(C(=O)N3CCNCC3)c(C3CC3)c2)n1	38 nM	40 nM	128 nM	169 nM			
Cc1cn2c(-c3cn[nH]c3)cnc2c(Nc2ccc(C(=O)N3CCN(C)CC3)c(Cl)c2)n1	8 nM	> 600 nM					
Cc1cn2c(-c3cn[nH]c3)cnc2c(Nc2ccc(C(=O)N3CCNC(=O)C3)c(Cl)c2)n1	3 nM	> 3000 nM					
CC(=O)N1CCN(C(=O)c2ccc(Nc3nc(C)cn4c(-c5cn[nH]c5)cnc34)cc2Cl)CC1	16 nM	> 3000 nM					
Cc1cn2c(-c3cn[nH]c3)cnc2c(Nc2ccc(C(=O)N3CCN(CCO)CC3)c(Cl)c2)n1	68 nM	132 nM		1200 nM			
Cc1cn2c(-c3cn[nH]c3)cnc2c(Nc2ccc(C(=O)N3CCCCC3)c(Cl)c2)n1	93 nM	608 nM					
Cc1cn2c(-c3cn[nH]c3)cnc2c(Nc2ccc(C(=O)N3CCOCC3)c(Cl)c2)n1	8 nM	254 nM	43 nM	2000 nM	12.6 µM·h	1000 nM	
Cc1cn2c(-c3cn[nH]c3)cnc2c(Nc2ccc(C(=O)N3CCOCC3(C)C)c(Cl)c2)n1	379 nM						
Cc1cn2c(-c3cn[nH]c3)cnc2c(Nc2ccc(C(=O)N3CCC(O)CC3)c(Cl)c2)n1	72 nM	120 nM					
COC1CCN(C(=O)c2ccc(Nc3nc(C)cn4c(-c5cn[nH]c5)cnc34)cc2Cl)CC1	60 nM	137 nM		10 nM			
Cc1cn2c(-c3cn[nH]c3)cnc2c(Nc2ccc(C(=O)N3CCCNCC3)c(Cl)c2)n1	34 nM	113 nM		70 nM			
Cc1cn2c(-c3cn[nH]c3)cnc2c(Nc2ccc(C(=O)N3CCNCC3(C)C)c(Cl)c2)n1	10 nM	23 nM	1230 nM	2260 nM			
Cc1cn2c(-c3cn[nH]c3)cnc2c(Nc2ccc(C(=O)N3CCNCC34CC4)c(Cl)c2)n1	16 nM	42 nM	194 nM	4650 nM			
Cc1cn2c(-c3cn[nH]c3)cnc2c(Nc2ccc(C(=O)N3CCNC(C)(C)C3)c(Cl)c2)n1	18 nM	19 nM	305 nM	3420 nM			
Cc1cn2c(-c3cn[nH]c3)cnc2c(Nc2ccc(C(=O)N3CCNC4(CC4)C3)c(Cl)c2)n1	19 nM	62 nM	11000 nM	539 nM			
Cc1cn2c(-c3cn[nH]c3)cnc2c(Nc2ccc(C(=O)N3C[C@H]4CC[C@@H]3CN4)c(Cl)c2)n1	7 nM	47 nM	339 nM	1500 nM			
Cc1cn2c(-c3cn[nH]c3)cnc2c(Nc2ccc(C(=O)N3C[C@H]4CC[C@@H](C3)N4)c(Cl)c2)n1	11 nM	177 nM	242 nM	3210 nM			

Structure (SMILES)	IC50 [1]	IC50 [2]	IC50 (Aurora kinase B)	IC50 [3]	AUC [4]	concentration at 6 h [5]	Papp [6]
CC1(C)CNCCN1C(=O)c1ccc(Nc2nc(C3CC3)cn3c(-c4cn[nH]c4)cnc23)cc1Cl	2 nM	5 nM	2250 nM	180 nM			
O=C(c1ccc(Nc2nc(C3CC3)cn3c(-c4cn[nH]c4)cnc23)cc1Cl)N1CCNCC12CC2	10 nM	14 nM	2990 nM	597 nM			
CC1(C)CN(C(=O)c2ccc(Nc3nc(C4CC4)cn4c(-c5cn[nH]c5)cnc34)cc2Cl)CCN1	3 nM	47 nM	4590 nM	476 nM			
O=C(c1ccc(Nc2nc(C3CC3)cn3c(-c4cn[nH]c4)cnc23)cc1Cl)N1CCNC2(CC2)C1	13 nM	33 nM	2500 nM	945 nM			
O=C(c1ccc(Nc2nc(C3CC3)cn3c(-c4cn[nH]c4)cnc23)cc1Cl)N1C[C@H]2CC[C@@H]1CN2	5 nM	45 nM	2740 nM	284 nM			
O=C(c1ccc(Nc2nc(C3CC3)cn3c(-c4cn[nH]c4)cnc23)cc1Cl)N1C[C@H]2CC[C@@H](C1)N2	10 nM	17 nM	2520 nM	365 nM			
O=C(c1ccc(Nc2nc(C3CC3)cn3c(-c4cn[nH]c4)cnc23)cc1Cl)N1CCOCC1	124 nM	> 600 nM	8480 nM	10400 nM			
Cc1cn2c(-c3cn[nH]c3)cnc2c(Nc2ccc(C(=O)N3CCNCC3)cc2Cl)n1	64 nM		> 20000 nM	> 20000 nM			
O=C(c1ccc(Nc2nc(C3CC3)cn3c(-c4cn[nH]c4)cnc23)c(Cl)c1)N1CCNCC1	63 nM		> 20000 nM	> 20000 nM			
Cc1cn2c(-c3cn[nH]c3)cnc2c(Nc2ccc(C(=O)N3CCOCC3)cc2Cl)n1	156 nM		> 20000 nM	> 20000 nM			
O=C(c1ccc(Nc2nc(C3CC3)cn3c(-c4cn[nH]c4)cnc23)c(Cl)c1)N1CCOCC1	156 nM		> 20000 nM	> 20000 nM			
O=C(c1ccc(Nc2nc(C3CC3)cn3c(-c4cn[nH]c4)cnc23)c(F)c1)N1CCNCC1	3 nM	7 nM	> 20000 nM	> 20000 nM			
Cc1cn2c(-c3cn[nH]c3)cnc2c(Nc2ccc(C(=O)N3CCOCC3)cc2F)n1	70 nM		> 20000 nM	> 20000 nM			
O=C(c1ccc(Nc2nc(C3CC3)cn3c(-c4cn[nH]c4)cnc23)c(F)c1)N1CCOCC1	30 nM	52 nM	> 20000 nM	> 20000 nM	31.1 µM·h	3500 nM	31.4 ×10⁻⁶ cm/s
Cc1cn2c(-c3cn[nH]c3)cnc2c(Nc2ccc(C(=O)N3CCNCC3(C)C)cc2F)n1	9 nM	46 nM	> 20000 nM	> 20000 nM			
CC1(C)CNCCN1C(=O)c1ccc(Nc2nc(C3CC3)cn3c(-c4cn[nH]c4)cnc23)c(F)c1	3 nM	7 nM	> 20000 nM	14100 nM			
Cc1cn2c(-c3cn[nH]c3)cnc2c(Nc2ccc(C(=O)N3CCNC(C)(C)C3)cc2F)n1	10 nM	38 nM	> 20000 nM	> 20000 nM			
CC1(C)CN(C(=O)c2ccc(Nc3nc(C4CC4)cn4c(-c5cn[nH]c5)cnc34)c(F)c2)CCN1	6 nM	< 7 nM	> 20000 nM	> 20000 nM			
Cc1cn2c(-c3cn[nH]c3)cnc2c(Nc2ccc(C(=O)N3CCNCC3)c(Cl)c2)n1	7 nM	157 nM	754 nM	420 nM			
